Experimental data taken from US20220072013A1, “Pharmaceutical Combinations for the Treatment of Cancer” (CA*TX, Inc., priority 2018, published 2022).
“Also recorded” adds a separate entry of the source.

How the values were obtained:
[1] = system: intestinal tumors in Apc^Min/+ mice; experiment: Intestinal tumor development in Apc^Min/+ mice given drug-containing diets; format: in vivo; conditions: for decrease in tumor number: analyzed at 12 weeks; for change in tumor size: started before adenoma development (age 4 to 12 weeks)
Experimental: FIG. 1 illustrates the decrease in the number of intestinal tumors in Apc^Min/+ mice given Budesonide- or Sulindac-containing diets for 8 or 4 weeks (from age 4 weeks to age 12 weeks or age 8 weeks to age 12 weeks); bars show % change in tumor number compared to untreated C57BL/6 control mice.
FIG. 2 illustrates the change in size of intestinal tumors in Apc^Min/+ mice that were administered Budesonide- or Sulindac containing diets for 8 or 4 weeks (from age 4 weeks to age 12 weeks or age 8 weeks to age 12 weeks); bars show % change in tumor size compared to untreated C57BL/6 control mice.
Budesonide, a steroidal anti-inflammatory drug active against lung cancer development, was investigated as a drug for CRC. Budesonide was evaluated using the murine model for hereditary CRC (FAP) in humans—Apc^Min/+ mice—which, like FAP patients, carry a germline Apc mutation and which spontaneously develop multiple intestinal tumors. The effects of Budesonide were compared to Sulindac as the “gold standard” for an NSAID drug known to inhibit tumor development in Apc^Min mice. The Apc^Min/+ and control mice (C57BL6) were given Budesonide- or Sulindac-containing diets starting at 4 or 8 weeks of age (corresponding, respectively, to ages before and after intestinal tumor development). At 12 weeks, mice were sacrificed and intestines analyzed for adenomas. […] Without wishing to be bound by any particular theory, it is concluded that Budesonide has strong activity against the development of multiple tumors that would otherwise be induced by a variety of Apc mutations (combinations of inherited 1st hit and acquired 2nd hits), and also regression of many tumors after they had already developed.

survivin = experiment: Survivin mRNA and protein expression in HT-29 cells (RT-PCR, western blot); format: cell-based, human; conditions: Sulindac 200 μM
Experimental: RNA and protein expression were measured by RT-PCR and western blot, respectively. FIGS. 3A and 3B show an ethidium bromide-stained gel and graph of quantified data for survivin and Bcl-2 mRNA expression. FIGS. 3C and 3D show a western blot and graph of quantified data for survivin and Bcl-2 protein expression.
Another mechanism attributed to Sulindac's antitumor effects is its ability to induce apoptosis and decrease cell proliferation. This mechanism appears to involve a COX-independent mechanism whereby Sulindac (and other NSAIDs) induce degradation of beta-catenin, inactivation of Tcf-4, reduced expression of an anti-apoptotic protein (survivin; FIG. 3) and increased apoptosis in human CRC cells. […] To that end, survivin and Bcl-2 expression was evaluated in HT-29 cells that were treated with Sulindac (200 μM). RNA and protein expression were measured by RT-PCR and western blot, respectively. FIGS. 3A and 3B show an ethidium bromide-stained gel and graph of quantified data for survivin and Bcl-2 mRNA expression.

HT29 CRC cells = experiment: Apoptosis in HT29 CRC cells; format: cell-based, human
[2] = system: global DNA methylation of adenomas in Apc^Min/+ mice; experiment: Anti-5-methylcytidine immunostaining of small intestine adenomas (global DNA methylation); format: in vivo
HT29 (APC mutant) cells = experiment: DNA methylation (epigenetic) profiling of HT29 cells; format: cell-based, human
Experimental: FIG. 5 illustrates that Budesonide increases DNA methylation in human CRC cells. To determine if Budesonide increases DNA methylation in human CRC cells, epigenetic profiling was done on HT29 (APC mutant) cells in response to Budesonide exposure. […] A statistically significant shift in CpG methylation occurred at 235 unique CpG sites (out of 1.9 M that were analyzed).

[3] = diet started at 4 weeks of age, prior to establishment of intestinal adenomas
[4] = diet started at 8 weeks of age, after adenoma development

SMILES: CC1=C(CC(=O)O)c2cc(F)ccc2/C1=C\c1ccc([S+](C)[O-])cc1 (stereo not drawn) [Sulindac]
- decrease in tumor number [1, 3]: 90%
- decrease in tumor number [1, 4]: 90%
- change in tumor size [1]: decreased
- survivin expression (survivin): monotonic decrease; also recorded: attenuates expression
- apoptosis (HT29 CRC cells): induces apoptosis

SMILES: CCCC1O[C@@H]2C[C@H]3[C@@H]4CCC5=CC(=O)C=C[C@]5(C)[C@H]4[C@@H](O)C[C@]3(C)[C@]2(C(=O)CO)O1 (stereo partly drawn) [Budesonide, budesonide]
- decrease in tumor number [1, 3]: 88%
- decrease in tumor number [1, 4]: 60%
- change in tumor size [1]: decreased
- 5-methylcytidine immunostaining signal intensity, increase [2]: 1.9 fold
- proportion of cells staining positive for 5-methylcytidine [2]: increase
- 1 MB domains across the genome showing an increase in methylation versus control (HT29 (APC mutant) cells; Budesonide exposure): 69.3%
- unique CpG sites with statistically significant shift in CpG methylation (HT29 (APC mutant) cells; out of 1.9 M sites analyzed): 235
